Source: patent US20230212549A1, “COMPOUNDS COMPRISING A […] LIGAND AND USE THEREOF” (priority 2021, published 2023)
Numbered stars: 1 amine (or outer) side, 2 acyl side, 3 side chain; on linkers, the order of the positions; unused ones are H or OH. Bridge positions count the residues as written; N and C are the ends. Square brackets hold non-standard residues; d marks the D form. Peptide text beside a SMILES is read from it. * marks the point of attachment. ξ: configuration not given here. X13 = O=C(O)CN1CCN(CC(=O)O)CCN(CC(=O)N2CCN(Cc3cc(C[*:1])cc(C[*:2])c3)CC2)CCN(CC(=O)O)CC1; X10 = O=C(O)CN1CCN(CC(=O)O)CCN(C(CCC(=O)NCCCOCCOCCOCCCN*)C(=O)O)CC1; DOTA = O=C(O)CN1CCN(CC(=O)O)CCN(CC(=O)*)CCN(CC(=O)O)CC1; Oic = O=C(O)[C@@H]1C[C@@H]2CCCC[C@@H]2N1; Phe(2-Cl) = N[C@@H](Cc1ccccc1Cl)C(=O)O; Pro(4,4-F2) = O=C(O)[C@@H]1CC(F)(F)CN1; Met(O2) = CS(=O)(=O)CC[C@H](N)C(=O)O; mXylylene = c1cc(C[*:1])cc(C[*:2])c1; PEG6 = NCCOCCOCCOCCOCCOCCOCCC(=O)O; NMeF = CN[C@@H](Cc1ccccc1)C(=O)O; X29 = O=C(CN1CCN([*:1])CC1)[*:2]; Suc = O=C(CCC(=O)[*:2])[*:1]; Nle = CCCC[C@H](N)C(=O)O; X2 = NCCNCC(CNCCN)C(=O)*; Hexanoyl = CCCCCC(=O)*; Ahx = NCCCCCC(=O)O; ξC = NC(CS)C(=O)O

Assays:
[1] = target: T1, FAP-expressing human WI-38 fibroblasts (Homo sapiens, UniProt Q12884); assay: Competitive FACS binding assay
T1 construct: FAP-expressing human WI-38 fibroblasts (ECACC) were cultured in EMEM; host or cells: WI-38 human fibroblasts
T1 sequence (Q12884 whole entry): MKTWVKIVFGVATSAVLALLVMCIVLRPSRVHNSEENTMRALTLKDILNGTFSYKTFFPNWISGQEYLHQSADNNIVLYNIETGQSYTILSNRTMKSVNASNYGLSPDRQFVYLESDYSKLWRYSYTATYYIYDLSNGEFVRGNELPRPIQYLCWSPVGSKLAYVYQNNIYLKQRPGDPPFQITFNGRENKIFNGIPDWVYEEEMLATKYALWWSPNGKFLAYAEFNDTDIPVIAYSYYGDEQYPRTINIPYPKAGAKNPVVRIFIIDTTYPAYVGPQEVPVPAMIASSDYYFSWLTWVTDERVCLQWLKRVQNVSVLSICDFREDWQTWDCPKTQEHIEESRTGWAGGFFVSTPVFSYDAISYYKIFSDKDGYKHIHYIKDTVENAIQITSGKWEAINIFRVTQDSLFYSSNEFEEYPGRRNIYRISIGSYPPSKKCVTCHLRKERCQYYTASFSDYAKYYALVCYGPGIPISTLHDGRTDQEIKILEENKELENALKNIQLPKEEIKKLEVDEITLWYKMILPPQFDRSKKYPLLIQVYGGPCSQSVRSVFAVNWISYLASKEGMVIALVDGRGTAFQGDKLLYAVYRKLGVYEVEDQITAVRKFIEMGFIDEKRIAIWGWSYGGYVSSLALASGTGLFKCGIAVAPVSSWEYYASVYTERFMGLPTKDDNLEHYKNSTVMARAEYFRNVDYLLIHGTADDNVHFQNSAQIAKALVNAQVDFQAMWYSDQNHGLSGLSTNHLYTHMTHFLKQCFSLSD
Description: Cells were analyzed in an Attune NxT flow cytometer. […] […].
Cells were analyzed in an Attune NxT flow cytometer. […]

Human recombinant FAP = Human recombinant FAP (Homo sapiens, UniProt Q12884); assay: FRET-based FAP protease activity assay; type: biochemical; parameters: purchased R&D systems 3715-SE
Sequence of Human recombinant FAP (Q12884 whole entry): as above

[2] = pIC50 Category (Activity), FRET-based FAP protease activity assay, recombinant human FAP, 37° C.
[3] = pIC50 Category (activity), Recombinant human FAP
[4] = pIC50 Category (Activity), FRET-peptide substrate, 37° C.

SMILES	IC50 [1]	IC50 (Human recombinant FAP; [2])	IC50 (Human recombinant FAP; [4])	IC50 (Human recombinant FAP; [3])
CCCC[C@H](NC(=O)CCOCCOCCOCCOCCOCCOCCNC(=O)CN1CCN(C(=O)C(CNCCN)CNCCN)CC1)C(=O)N[C@H]1CSCc2cccc(c2)CSC[C@@H](C(=O)O)NC(=O)[C@H](Cc2ccccc2)NC(=O)[C@H](CCC(=O)O)NC(=O)[C@H]([C@@H](C)O)NC(=O)[C@@H]2CCCN2C(=O)[C@@H]2CCCN2C1=O [3BP-4781, N4Ac-PPAc-PEG6-Nle-[Cys(3MeBn)-Pro-Pro-Thr-Glu-Phe-Cys]-OH] (X2-[X29][PEG6][Nle]CPPTEFC-OH; linker 4-10 via mXylylene)	10 to 79.4 nM	–	–	10 to 79.4 nM
C[C@@H](O)[C@@H]1NC(=O)[C@@H]2CCCN2C(=O)[C@@H]2CCCN2C(=O)[C@@H](NC(=O)CCCCCNC(=O)CN2CCN(CC(=O)O)CCN(CC(=O)O)CCN(CC(=O)O)CC2)CSCc2cccc(c2)CSC[C@@H](C(=O)N[C@@H](CC(=O)O)C(=O)N[C@@H](Cc2c[nH]cn2)C(=O)N(C)[C@@H](Cc2ccccc2)C(=O)N[C@@H](CCCNC(=N)N)C(=O)N[C@@H](CC(=O)O)C(N)=O)NC(=O)[C@H](Cc2ccccc2)NC(=O)[C@H](CCC(=O)O)NC1=O [3BP-3266, DOTA-Ahx-[Cys(3MeBn)-Pro-Pro-Thr-Glu-Phe-Cys]-Asp-His-Nmf-Arg-Asp-NH2] ({DOTA-Ahx}-CPPTEFCDH[NMeF]RD-NH2; linker 1-7 via mXylylene)	100 to 794 nM	100 to 794 nM	–	–
CSCC[C@H](NC(C)=O)C(=O)N[C@H]1CSCc2cccc(c2)CSC[C@@H](C(=O)N[C@@H](CC(=O)O)C(=O)N[C@@H](Cc2c[nH]cn2)C(=O)N[C@@H](Cc2ccccc2)C(=O)N[C@@H](CCCNC(=N)N)C(=O)N[C@@H](CC(=O)O)C(N)=O)NC(=O)[C@H](Cc2ccccc2)NC(=O)[C@H](CCC(=O)O)NC(=O)[C@H]([C@@H](C)O)NC(=O)[C@@H]2CCCN2C(=O)[C@@H]2C[C@@H]3CCCC[C@@H]3N2C1=O [3BP-3216, Ac-Met-[Cys(3MeBn)-Oic-Pro-Thr-Glu-Phe-Cys]-Asp-His-Phe-Arg-Asp-NH2] (Ac-MC[Oic]PTEFCDHFRD-NH2; linker 2-8 via mXylylene)	100 to 794 nM	100 to 794 nM	–	–
CCCCCC(=O)N[C@H]1CSCc2cccc(c2)CSC[C@@H](C(N)=O)NC(=O)[C@H](Cc2ccccc2)NC(=O)[C@H](CCS(C)(=O)=O)NC(=O)[C@H]([C@@H](C)O)NC(=O)[C@@H]2CCCN2C(=O)[C@@H]2CCCN2C1=O [3BP-3356, Hex-[Cys(3MeBn)-Pro-Pro-Thr-Moo-Phe-Cys]-NH2] (Hexanoyl-CPPT[Met(O2)]FC-NH2; linker 1-7 via mXylylene)	> 1000 nM	> 1000 nM	–	–
CCCCCC(=O)N[C@H]1CSCc2cc(CSCCNC(=O)CCCC(=O)Nc3ccc(C[C@@H](CN(CCN(CC(=O)O)CC(=O)O)CC(=O)O)N(CC(=O)O)CC(=O)O)cc3)cc(c2)CSC[C@@H](C(=O)O)NC(=O)[C@H](Cc2ccccc2)NC(=O)[C@H](CCC(N)=O)NC(=O)[C@H]([C@@H](C)O)NC(=O)[C@@H]2CCCN2C(=O)[C@@H]2CCCN2C1=O [3BP-4366, Hex-[Cys-(tMeBn(DTPABzl-Glutar-AET))-Pro-Pro-Thr-Gln-Phe-Cys]-OH]	100 to 794 nM	–	100 to 794 nM	–
CCCCCC(=O)N[C@H]1CSCc2cc(cc(CN3CCN(C(=O)CN4CCN(CC(=O)O)CCN(CC(=O)O)CCN(CC(=O)O)CC4)CC3)c2)CSC[C@@H](C(=O)N[C@@H](CC(=O)O)C(N)=O)NC(=O)[C@H](Cc2ccccc2)NC(=O)[C@H](CCC(N)=O)NC(=O)[C@H](C)NC(=O)[C@@H]2CCCN2C(=O)[C@@H]2CCCN2C1=O [3BP-3745, Hex-[Cys(tMeBn(DOTA-PP))-Pro-Pro-Ala-Gln-Phe-Cys]-Asp-NH2] (Hexanoyl-CPPAQFCD-NH2; linker 1-7 via X13)	100 to 794 nM	100 to 794 nM	–	–

Further lines, with some results ahead:

IC50 [1]	IC50 (Human recombinant FAP; [2])	IC50 (Human recombinant FAP; [4])	SMILES	IC50 (Human recombinant FAP; [3])
> 1000 nM	100 to 794 nM	–	CCCCCC(=O)N[C@H]1CSCc2cccc(c2)CSC[C@@H](C(N)=O)NC(=O)[C@H](Cc2ccccc2)NC(=O)[C@H](CCC(=O)O)NC(=O)[C@H]([C@@H](C)O)NC(=O)[C@@H]2CC(F)(F)CN2C(=O)[C@@H]2CCCN2C1=O [3BP-3365, Hex-[Cys(3MeBn)-Pro-4Dfp-Thr-Glu-Phe-Cys]-NH2] (Hexanoyl-CP[Pro(4,4-F2)]TEFC-NH2; linker 1-7 via mXylylene)	–
> 1000 nM	> 1000 nM	–	C[C@@H](O)[C@@H]1NC(=O)[C@@H]2CCCN2C(=O)[C@@H]2CCCN2C(=O)[C@@H](NC(=O)CCCS(N)(=O)=O)CSCc2cccc(c2)CSC[C@@H](C(N)=O)NC(=O)[C@H](Cc2ccccc2)NC(=O)[C@H](CCC(N)=O)NC1=O [3BP-3860, H2NSO2-But-[Cys(3MeBn)-Pro-Pro-Thr-Gln-Phe-Cys]-NH2]	–
100 to 794 nM	10 to 79.4 nM	–	CCCCCC(=O)N[C@H]1CSCc2cccc(c2)CSC[C@@H](C(N)=O)NC(=O)[C@H](Cc2ccccc2Cl)NC(=O)[C@H](CCC(=O)O)NC(=O)[C@H]([C@@H](C)O)NC(=O)[C@@H]2CCCN2C(=O)[C@@H]2CCCN2C1=O [3BP-3368, Hex-[Cys(3MeBn)-Pro-Pro-Thr-Glu-Ocf-Cys]-NH2] (Hexanoyl-CPPTE[Phe(2-Cl)]C-NH2; linker 1-7 via mXylylene)	–
10 to 79.4 nM	–	10 to 79.4 nM	C#CCCCC(=O)N[C@H]1CSCc2cc(CSCCNC(=O)CN3CCN(CC(=O)O)CCN(CC(=O)O)CCN(CC(=O)O)CC3)cc(c2)CSC[C@@H](C(=O)O)NC(=O)[C@H](Cc2ccccc2)NC(=O)[C@H](CCC(N)=O)NC(=O)[C@H]([C@@H](C)O)NC(=O)[C@@H]2CCCN2C(=O)[C@@H]2CCCN2C1=O [3BP-3913, Hyn-[Cys(tMeBn(DOTA-AET))-Pro-Pro-Thr-Gln-Phe-Cys]-OH]	–
10 to 79.4 nM	–	10 to 79.4 nM	CCCC[C@H](NC(=O)CCC(=O)NCCCOCCOCCOCCCNC(=O)CN1CCN(CC(=O)O)CCN(CC(=O)O)CCN(CC(=O)O)CC1)C(=O)N[C@H]1CSCc2cc(CSCCNC(=O)CN3CCN(CC(=O)O)CCN(CC(=O)O)CCN(CC(=O)O)CC3)cc(c2)CSC[C@@H](C(=O)O)NC(=O)[C@H](Cc2ccccc2)NC(=O)[C@H](CCC(N)=O)NC(=O)[C@H]([C@@H](C)O)NC(=O)[C@@H]2CCCN2C(=O)[C@@H]2CCCN2C1=O [3BP-4386, DOTA-Ttds-Nle-[Cys(tMeBn(DOTA-AET))-Pro-Pro-Thr-Gln-Phe-Cys]-OH]	–
< 10 nM	–	10 to 79.4 nM	COCCCC(=O)N[C@H]1CSCc2cc(CSCCNC(=O)CN3CCN(CC(=O)O)CCN(CC(=O)O)CCN(CC(=O)O)CC3)cc(c2)CSC[C@@H](C(=O)O)NC(=O)[C@H](Cc2ccccc2)NC(=O)[C@H](CCC(N)=O)NC(=O)[C@H]([C@@H](C)O)NC(=O)[C@@H]2CCCN2C(=O)[C@@H]2CCCN2C1=O [3BP-3937, MeOBut-[Cys(tMeBn(DOTA-AET))-Pro-Pro-Thr-Gln-Phe-Cys]-OH]	–
10 to 79.4 nM	–	–	CCCC[C@H](NC(=O)CCC(=O)NCCCOCCOCCOCCCNC(=O)CCC(C(=O)O)N1CCN(CC(=O)O)CCN(CC(=O)O)CC1)C(=O)N[C@H]1CSCc2cccc(c2)CSCC(C(N)=O)NC(=O)[C@H](Cc2ccccc2)NC(=O)[C@H](CCC(=O)O)NC(=O)[C@H]([C@@H](C)O)NC(=O)[C@@H]2CCCN2C(=O)[C@@H]2CCCN2C1=O (stereo partly drawn) [3BP-4743, NODAGA-Ttds-Nle-[Cys(3MeBn)-Pro-Pro-Thr-Glu-Phe-Cys]-NH2] ({X10-Suc}-[Nle]CPPTEF[ξC]-NH2; linker 2-8 via mXylylene)	10 to 79.4 nM
10 to 79.4 nM	–	10 to 79.4 nM	C[C@@H](O)[C@@H]1NC(=O)[C@@H]2CCCN2C(=O)[C@@H]2CCCN2C(=O)[C@@H](NC(=O)C2CCCC2)CSCc2cc(CSCCNC(=O)CN3CCN(CC(=O)O)CCN(CC(=O)O)CCN(CC(=O)O)CC3)cc(c2)CSC[C@@H](C(=O)O)NC(=O)[C@H](Cc2ccccc2)NC(=O)[C@H](CCC(N)=O)NC1=O [3BP-3909, Cp-[Cys(tMeBn(DOTA-AET))-Pro-Pro-Thr-Gln-Phe-Cys]-OH]	–
